Data taken from article PMC7105311, “Structure and function of Bs164 β-mannosidase from Bacteroides salyersiae the founding member of glycoside hydrolase family GH164” (The Journal of Biological Chemistry, 2019).
Like-named read-outs stand apart in the source and are kept apart here.

Target: T1, Bs164 (Bacteroides salyersiae, UniProt I9SUA3)
T1 construct: gene HMPREF1071_03408; tag cut by 3C protease for kinetics, His6-tagged for crystals
T1 sequence (I9SUA3 22-673): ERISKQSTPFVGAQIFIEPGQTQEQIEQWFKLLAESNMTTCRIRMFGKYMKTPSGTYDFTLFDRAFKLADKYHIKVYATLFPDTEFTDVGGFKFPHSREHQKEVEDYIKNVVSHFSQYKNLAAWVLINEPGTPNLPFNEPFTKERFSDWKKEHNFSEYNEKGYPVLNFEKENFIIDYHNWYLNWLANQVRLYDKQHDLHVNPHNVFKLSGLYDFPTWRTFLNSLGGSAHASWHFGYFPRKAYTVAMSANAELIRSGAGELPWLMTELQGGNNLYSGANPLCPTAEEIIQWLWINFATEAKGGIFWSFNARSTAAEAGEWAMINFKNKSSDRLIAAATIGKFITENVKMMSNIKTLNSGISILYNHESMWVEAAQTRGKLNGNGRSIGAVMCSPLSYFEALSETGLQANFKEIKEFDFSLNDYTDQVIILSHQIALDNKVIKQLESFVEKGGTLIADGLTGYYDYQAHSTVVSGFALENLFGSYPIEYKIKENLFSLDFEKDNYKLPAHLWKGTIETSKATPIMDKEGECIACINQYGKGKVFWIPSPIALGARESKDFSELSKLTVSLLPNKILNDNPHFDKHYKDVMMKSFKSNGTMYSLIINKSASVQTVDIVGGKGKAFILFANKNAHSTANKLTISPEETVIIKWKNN
Experiment: inhibition of pNP β-Man hydrolysis, absorbance, competitive model fit
Format: biochemical
From the text: inhibition of pNP β-Man hydrolysis, absorbance, competitive model fit on Bs164 | Mannoimidazole and noeuromycin act as competitive inhibitors of Bs164 with inhibition constants (Ki)

| SMILES | Ki | Ki (competitive, substrate pNP β-Man, 80 mM MES pH 5.5, 160 mM NaCl, 25 °C, crystal structure 2.06 Å, -1 subsite) |
| --- | --- | --- |
| OC[C@@H]1[C@@H](O)[C@H](O)[C@H](O)c2nccn21 [mannoimidazole] | 470 ± 60 µM |  |
| OC[C@H]1CN[C@@H](O)[C@@H](O)[C@@H]1O [noeuromycin] |  | 0.34 ± 0.04 µM |
